In PMC4858680, “A platinum-based hybrid drug design approach to circumvent acquired resistance to molecular targeted tyrosine kinase inhibitors” (Scientific Reports, 2016):
Where two headings read alike, the source gives them in different places.

Key:
[1] = target: T1, ITK (Homo sapiens, UniProt Q08881); assay: biochemical; settings: read-out: Percent control
T1 sequence (Q08881 1-620): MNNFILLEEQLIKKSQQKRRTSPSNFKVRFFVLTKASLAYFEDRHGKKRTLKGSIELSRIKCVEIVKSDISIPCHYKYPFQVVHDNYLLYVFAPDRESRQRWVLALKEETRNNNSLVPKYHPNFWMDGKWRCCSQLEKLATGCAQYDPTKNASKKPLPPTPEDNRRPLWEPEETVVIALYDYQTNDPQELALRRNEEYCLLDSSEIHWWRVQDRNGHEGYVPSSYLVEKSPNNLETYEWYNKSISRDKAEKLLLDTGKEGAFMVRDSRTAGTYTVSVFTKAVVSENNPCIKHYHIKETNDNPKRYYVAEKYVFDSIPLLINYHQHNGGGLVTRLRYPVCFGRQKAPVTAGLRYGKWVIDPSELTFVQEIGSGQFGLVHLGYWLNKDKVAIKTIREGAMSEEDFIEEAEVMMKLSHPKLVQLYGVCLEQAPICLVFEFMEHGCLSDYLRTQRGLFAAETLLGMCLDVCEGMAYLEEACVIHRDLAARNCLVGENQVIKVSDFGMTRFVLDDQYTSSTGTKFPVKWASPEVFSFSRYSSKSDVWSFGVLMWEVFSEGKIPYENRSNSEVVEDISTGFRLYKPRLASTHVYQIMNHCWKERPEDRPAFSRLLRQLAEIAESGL

[2] = target: PDGFRA (Homo sapiens, UniProt P16234); assay: biochemical; settings: read-out: Percent control
[3] = target: T2, YES (Homo sapiens, UniProt P07947); assay type: binding; settings: for Percent control: 10 μM
T2 construct: purchased DiscoveRx Corporation (KINOMEscan service)

[4] = target: CSK (Homo sapiens, UniProt P41240); settings: 10 μM
[5] = target: T3, FLT3(N841I) (Homo sapiens, UniProt P36888, N841I)
T3 sequence (P36888 27-993 N841I): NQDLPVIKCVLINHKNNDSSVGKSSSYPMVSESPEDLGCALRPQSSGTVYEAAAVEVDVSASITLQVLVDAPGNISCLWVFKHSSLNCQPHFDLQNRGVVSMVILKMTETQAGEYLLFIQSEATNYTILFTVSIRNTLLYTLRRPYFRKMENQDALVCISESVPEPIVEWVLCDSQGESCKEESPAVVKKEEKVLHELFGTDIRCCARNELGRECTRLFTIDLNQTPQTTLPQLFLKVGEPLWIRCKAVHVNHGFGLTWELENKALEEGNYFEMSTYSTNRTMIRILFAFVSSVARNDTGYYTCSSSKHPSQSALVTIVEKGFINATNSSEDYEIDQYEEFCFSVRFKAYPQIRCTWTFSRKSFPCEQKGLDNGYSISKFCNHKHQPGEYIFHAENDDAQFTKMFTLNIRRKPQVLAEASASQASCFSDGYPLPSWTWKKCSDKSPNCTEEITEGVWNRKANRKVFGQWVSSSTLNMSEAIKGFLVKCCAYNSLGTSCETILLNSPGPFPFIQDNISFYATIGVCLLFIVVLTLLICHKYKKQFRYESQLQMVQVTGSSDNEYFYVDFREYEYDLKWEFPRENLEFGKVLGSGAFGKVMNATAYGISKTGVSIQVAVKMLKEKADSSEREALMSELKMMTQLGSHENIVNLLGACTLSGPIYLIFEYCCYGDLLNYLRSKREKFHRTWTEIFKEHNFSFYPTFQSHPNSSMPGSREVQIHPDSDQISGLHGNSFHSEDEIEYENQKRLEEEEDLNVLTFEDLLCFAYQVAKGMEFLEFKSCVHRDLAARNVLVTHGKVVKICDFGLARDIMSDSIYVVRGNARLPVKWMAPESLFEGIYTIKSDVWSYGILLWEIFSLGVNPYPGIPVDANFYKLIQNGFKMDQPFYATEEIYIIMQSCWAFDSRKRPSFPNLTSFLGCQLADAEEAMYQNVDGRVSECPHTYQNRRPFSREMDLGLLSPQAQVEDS

[6] = target: FRK (Homo sapiens, UniProt P42685); settings: 10 μM
[7] = target: LTK (Homo sapiens, UniProt P29376); settings: 10 μM
[8] = target: LYN (Homo sapiens, UniProt P07948); settings: 10 μM
[9] = target: TRKC (Homo sapiens, UniProt Q16288); settings: 10 μM
[10] = target: T4, ZAP70 (Homo sapiens, UniProt P43403); settings: 10 μM
T4 sequence (P43403 1-619): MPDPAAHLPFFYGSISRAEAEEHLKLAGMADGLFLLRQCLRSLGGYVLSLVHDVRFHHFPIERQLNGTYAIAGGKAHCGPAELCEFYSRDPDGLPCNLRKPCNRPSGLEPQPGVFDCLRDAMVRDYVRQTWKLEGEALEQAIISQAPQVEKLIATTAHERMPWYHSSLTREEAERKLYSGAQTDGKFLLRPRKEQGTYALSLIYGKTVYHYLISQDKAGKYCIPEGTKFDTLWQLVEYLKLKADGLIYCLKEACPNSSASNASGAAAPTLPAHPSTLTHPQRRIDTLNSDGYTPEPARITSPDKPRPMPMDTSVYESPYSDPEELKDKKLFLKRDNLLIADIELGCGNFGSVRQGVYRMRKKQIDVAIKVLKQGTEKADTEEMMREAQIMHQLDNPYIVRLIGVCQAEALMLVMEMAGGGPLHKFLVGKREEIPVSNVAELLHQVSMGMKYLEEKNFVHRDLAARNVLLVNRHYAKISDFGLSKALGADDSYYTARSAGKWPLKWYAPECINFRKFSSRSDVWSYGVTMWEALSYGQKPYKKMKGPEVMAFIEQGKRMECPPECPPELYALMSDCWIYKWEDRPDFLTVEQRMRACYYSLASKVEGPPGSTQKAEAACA

Chain of LTK (P29376 17-864): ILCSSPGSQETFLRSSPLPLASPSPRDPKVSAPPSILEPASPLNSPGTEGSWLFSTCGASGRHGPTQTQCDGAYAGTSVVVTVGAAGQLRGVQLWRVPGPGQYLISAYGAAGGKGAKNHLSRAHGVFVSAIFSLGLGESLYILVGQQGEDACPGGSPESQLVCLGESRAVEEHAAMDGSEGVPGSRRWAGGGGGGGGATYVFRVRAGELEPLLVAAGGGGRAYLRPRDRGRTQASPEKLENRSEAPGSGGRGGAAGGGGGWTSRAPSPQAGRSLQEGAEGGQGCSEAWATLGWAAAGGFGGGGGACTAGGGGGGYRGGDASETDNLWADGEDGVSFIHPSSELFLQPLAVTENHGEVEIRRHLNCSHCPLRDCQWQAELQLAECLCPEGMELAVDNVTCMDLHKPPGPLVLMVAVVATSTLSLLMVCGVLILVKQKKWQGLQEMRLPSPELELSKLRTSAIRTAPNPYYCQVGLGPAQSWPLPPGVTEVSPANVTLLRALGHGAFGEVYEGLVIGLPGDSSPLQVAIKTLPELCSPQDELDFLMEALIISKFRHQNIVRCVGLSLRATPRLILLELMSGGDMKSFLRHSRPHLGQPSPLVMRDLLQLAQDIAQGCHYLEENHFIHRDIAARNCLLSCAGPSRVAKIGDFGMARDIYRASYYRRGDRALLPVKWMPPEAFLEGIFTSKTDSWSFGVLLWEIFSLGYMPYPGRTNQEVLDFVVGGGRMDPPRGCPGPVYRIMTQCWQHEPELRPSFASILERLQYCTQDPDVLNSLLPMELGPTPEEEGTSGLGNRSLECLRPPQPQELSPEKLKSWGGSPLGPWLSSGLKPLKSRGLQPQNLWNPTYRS
Chain of LYN (P07948 whole entry): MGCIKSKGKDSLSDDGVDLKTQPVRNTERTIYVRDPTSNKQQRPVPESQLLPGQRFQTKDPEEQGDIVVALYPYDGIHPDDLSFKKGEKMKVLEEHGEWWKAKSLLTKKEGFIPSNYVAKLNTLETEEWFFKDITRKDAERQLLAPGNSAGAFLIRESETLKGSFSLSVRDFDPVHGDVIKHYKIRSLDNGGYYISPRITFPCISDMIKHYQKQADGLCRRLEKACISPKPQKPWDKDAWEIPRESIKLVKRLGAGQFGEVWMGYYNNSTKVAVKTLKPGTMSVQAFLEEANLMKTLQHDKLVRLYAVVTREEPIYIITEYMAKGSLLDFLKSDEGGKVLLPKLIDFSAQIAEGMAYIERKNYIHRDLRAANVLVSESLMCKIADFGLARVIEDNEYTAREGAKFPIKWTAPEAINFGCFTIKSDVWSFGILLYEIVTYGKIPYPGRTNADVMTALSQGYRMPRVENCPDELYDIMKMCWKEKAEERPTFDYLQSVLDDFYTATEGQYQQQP
Chain of FRK (P42685 whole entry): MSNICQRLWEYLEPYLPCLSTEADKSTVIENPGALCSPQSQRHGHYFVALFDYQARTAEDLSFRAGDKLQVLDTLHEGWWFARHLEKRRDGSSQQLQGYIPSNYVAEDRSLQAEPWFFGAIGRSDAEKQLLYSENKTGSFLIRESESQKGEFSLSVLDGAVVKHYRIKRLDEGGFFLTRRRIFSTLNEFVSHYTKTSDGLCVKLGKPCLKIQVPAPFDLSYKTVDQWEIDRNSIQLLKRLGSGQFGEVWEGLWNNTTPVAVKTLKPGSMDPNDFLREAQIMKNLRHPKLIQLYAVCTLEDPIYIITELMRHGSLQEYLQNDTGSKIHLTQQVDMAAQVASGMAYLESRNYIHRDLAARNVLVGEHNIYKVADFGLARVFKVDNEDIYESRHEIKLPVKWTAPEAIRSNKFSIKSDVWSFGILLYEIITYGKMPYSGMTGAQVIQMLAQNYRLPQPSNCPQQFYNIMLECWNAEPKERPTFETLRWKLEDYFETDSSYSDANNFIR
Chain of PDGFRA (P16234 24-1089): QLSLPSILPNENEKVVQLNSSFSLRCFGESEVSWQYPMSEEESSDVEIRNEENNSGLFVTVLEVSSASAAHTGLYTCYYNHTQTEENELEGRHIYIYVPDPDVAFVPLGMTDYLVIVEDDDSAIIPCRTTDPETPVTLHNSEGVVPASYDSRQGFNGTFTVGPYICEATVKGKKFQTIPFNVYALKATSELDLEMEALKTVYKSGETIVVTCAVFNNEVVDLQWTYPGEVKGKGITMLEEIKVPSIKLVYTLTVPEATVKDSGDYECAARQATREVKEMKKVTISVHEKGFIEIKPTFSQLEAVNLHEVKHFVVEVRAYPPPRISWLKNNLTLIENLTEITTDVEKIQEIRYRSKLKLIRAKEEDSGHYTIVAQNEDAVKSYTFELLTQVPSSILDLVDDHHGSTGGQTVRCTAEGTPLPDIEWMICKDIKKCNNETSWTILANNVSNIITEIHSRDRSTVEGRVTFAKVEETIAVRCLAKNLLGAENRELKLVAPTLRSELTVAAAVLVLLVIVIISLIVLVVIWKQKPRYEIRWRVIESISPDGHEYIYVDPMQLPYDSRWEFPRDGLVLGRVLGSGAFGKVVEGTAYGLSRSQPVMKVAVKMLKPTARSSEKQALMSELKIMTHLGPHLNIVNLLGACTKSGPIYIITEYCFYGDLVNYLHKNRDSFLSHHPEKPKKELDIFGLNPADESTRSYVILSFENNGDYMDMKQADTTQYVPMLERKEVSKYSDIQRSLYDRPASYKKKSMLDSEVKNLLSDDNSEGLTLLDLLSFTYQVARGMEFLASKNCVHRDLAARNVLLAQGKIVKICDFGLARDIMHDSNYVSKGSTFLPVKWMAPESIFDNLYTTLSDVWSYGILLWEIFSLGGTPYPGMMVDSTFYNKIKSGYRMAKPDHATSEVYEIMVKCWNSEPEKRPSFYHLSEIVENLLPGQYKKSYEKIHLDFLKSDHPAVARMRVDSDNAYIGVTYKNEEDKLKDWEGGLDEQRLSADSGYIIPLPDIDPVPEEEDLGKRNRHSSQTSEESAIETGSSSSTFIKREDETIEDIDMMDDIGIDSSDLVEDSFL
Chain of TRKC (Q16288 32-839): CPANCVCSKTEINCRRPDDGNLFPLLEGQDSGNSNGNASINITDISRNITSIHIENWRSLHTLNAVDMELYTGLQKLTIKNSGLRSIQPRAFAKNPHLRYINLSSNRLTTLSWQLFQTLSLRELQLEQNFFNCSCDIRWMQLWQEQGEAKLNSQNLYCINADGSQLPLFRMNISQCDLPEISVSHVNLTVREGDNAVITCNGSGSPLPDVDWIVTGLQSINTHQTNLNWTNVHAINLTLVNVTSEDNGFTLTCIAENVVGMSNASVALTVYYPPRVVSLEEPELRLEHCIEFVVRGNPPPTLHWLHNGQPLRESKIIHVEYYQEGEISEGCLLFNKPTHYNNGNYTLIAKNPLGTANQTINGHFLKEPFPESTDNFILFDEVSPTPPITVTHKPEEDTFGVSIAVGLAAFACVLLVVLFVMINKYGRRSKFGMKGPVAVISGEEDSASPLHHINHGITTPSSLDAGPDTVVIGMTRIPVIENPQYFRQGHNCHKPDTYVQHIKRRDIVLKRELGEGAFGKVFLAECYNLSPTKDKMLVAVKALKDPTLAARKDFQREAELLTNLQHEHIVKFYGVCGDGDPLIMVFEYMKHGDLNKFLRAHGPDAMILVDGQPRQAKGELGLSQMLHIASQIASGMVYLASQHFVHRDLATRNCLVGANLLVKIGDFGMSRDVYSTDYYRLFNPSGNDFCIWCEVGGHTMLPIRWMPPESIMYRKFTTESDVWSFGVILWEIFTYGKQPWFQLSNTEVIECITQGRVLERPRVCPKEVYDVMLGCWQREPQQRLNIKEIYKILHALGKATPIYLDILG
Chain of CSK (P41240 whole entry): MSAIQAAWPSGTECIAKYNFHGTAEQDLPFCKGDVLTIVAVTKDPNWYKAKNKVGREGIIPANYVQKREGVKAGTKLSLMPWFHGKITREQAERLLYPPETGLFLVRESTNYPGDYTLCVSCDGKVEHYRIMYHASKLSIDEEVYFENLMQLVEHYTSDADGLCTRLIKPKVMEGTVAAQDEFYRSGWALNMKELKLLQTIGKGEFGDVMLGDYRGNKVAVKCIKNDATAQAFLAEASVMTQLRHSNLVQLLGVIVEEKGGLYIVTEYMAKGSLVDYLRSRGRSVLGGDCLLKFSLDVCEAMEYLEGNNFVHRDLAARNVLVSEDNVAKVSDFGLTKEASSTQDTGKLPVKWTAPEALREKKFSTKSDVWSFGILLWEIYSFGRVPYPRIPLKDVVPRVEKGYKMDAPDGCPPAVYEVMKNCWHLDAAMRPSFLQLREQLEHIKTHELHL
T2 sequence (P07947 whole entry): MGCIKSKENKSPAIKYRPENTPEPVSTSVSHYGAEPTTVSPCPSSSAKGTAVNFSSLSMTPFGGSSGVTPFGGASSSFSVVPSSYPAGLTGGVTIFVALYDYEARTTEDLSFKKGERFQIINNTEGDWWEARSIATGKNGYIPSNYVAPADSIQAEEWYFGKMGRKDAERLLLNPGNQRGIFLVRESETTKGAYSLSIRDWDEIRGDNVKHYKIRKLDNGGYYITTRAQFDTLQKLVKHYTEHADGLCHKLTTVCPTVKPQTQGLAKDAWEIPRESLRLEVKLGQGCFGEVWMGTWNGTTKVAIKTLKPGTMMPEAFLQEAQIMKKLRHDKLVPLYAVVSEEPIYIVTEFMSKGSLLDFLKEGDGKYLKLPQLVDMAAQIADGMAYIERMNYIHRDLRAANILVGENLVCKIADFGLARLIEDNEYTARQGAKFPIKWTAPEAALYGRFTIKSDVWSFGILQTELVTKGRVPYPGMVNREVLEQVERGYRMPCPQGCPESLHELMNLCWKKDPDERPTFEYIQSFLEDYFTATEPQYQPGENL

Structure (SMILES): C#Cc1cccc(Nc2ncnc3cc(OCCOC)c(OCCOC)cc23)c1 [Erlotinib]
- remaining activity at 10 µM [1]: 100%
- remaining activity at 10 µM [2]: 15.3%

Structure (SMILES): Cc1ccc(NC(=O)c2ccc(CN3CCN(C)CC3)cc2)cc1Nc1nccc(-c2cccnc2)[n+]1[Pt-2]1([Cl])[NH2+]C2CCCCC2[NH2+]1 (stereo not shown) [1b, oxaliplatin-imatinib]
- Percent control [3]: 100%
- Percent control [4]: 100%
- Percent control ([5]; FLT3(N841I), 10 μM): 72%
- Percent control [6]: 58%
- Percent control [7]: 85%
- Percent control [8]: 67%
- Percent control [9]: 100%
- Percent control [10]: 100%

Structure (SMILES): Cc1ccc(NC(=O)c2ccc(CN3CCN(C)CC3)cc2)cc1Nc1nccc(-c2cccnc2)n1 [Imatinib, reference compound]
- Percent control ([5]; FLT3(N841I), 10 μM): 100%
- Percent control [6]: 13.0%
- Percent control [7]: 92%
- Percent control [8]: 74%
- Percent control [9]: 100%
- Percent control [10]: 100%
- remaining activity at 10 µM [1]: 100%
- remaining activity at 10 µM [2]: 0.3%

Structure (SMILES): COc1cc2c(Nc3ccc(Br)cc3F)ncnc2cc1OCC1CCN(C)CC1 [Vandetanib, reference compound]
- remaining binding at 10 µM ([3]; read-out: Percent control): 1.2%
- remaining activity at 10 µM [1]: 100%
- remaining activity at 10 µM [2]: 2.2%

Structure (SMILES): COc1cc2c(Nc3ccc(Br)cc3F)[n+]([Pt-2]3([Cl])[NH2+]C4CCCCC4[NH2+]3)cnc2cc1OCC1CCN(C)CC1 (stereo not shown) [3b, oxaliplatin-vandetanib]
- Percent control [3]: 23%
- Percent control [4]: 41%
- Percent control [5]: 18
- Percent control [6]: 56%
- Percent control [7]: 27%
- Percent control [8]: 21%
- Percent control [9]: 98%
- Percent control [10]: 99%

Structure (SMILES): C#Cc1cccc(Nc2c3cc(OCCOC)c(OCCOC)cc3nc[n+]2[Pt@SP2-2]([NH3+])([NH3+])[Cl])c1 [2a, cisplatin-erlotinib]
- Percent control [3]: 100%
- Percent control [4]: 100%
- Percent control [5]: 70
- Percent control [6]: 75%
- Percent control [7]: 82%
- Percent control [8]: 69%
- Percent control [9]: 93%
- Percent control [10]: 89%
